Test results from patent US20250367299A1, “GAMMA-HYDRO[…] AND PROCESSES FOR MAKING AND USING THEM” (Zevra Therapeutics, Inc., priority 2022, published 2025).

Assay: Pharmacokinetics of GHB in plasma after oral gavage of GHB delivering compounds, with relative oral bioavailability vs sodium oxybate
Details: vehicle water; for % AUC0-4 hr, relative oral bioavailability vs study comparator (sodium oxybate) / % Cmax, relative oral bioavailability vs study comparator (sodium oxybate): mean conjugate/mean comparator
[1] = dose molar equivalent of 100 mg/kg NaGHB
[2] = dose equivalent to 80 mg/kg NaGHB

Row | SMILES | % AUC0-4 hr, relative oral bioavailability vs study comparator (sodium oxybate) [1] [%] | % Cmax, relative oral bioavailability vs study comparator (sodium oxybate) [1] [%] | Tmax of GHB in plasma (oral gavage, dose molar equivalent of 100 mg/kg NaGHB) [min] | % AUC0-4 hr, relative oral bioavailability vs study comparator (sodium oxybate) [2] [%] | % Cmax, relative oral bioavailability vs study comparator (sodium oxybate) [2] [%]
1 | O=C1CCCO1 [GBL] | 27 | 70 | 15 | – | –
2 | CCOC(=O)OCCCC(=O)O [O-(ethoxycarbonyl)-GHB, O-(Ethoxycarbonyl)-GHB] | – | – | – | 54 | 51
